Consider 11 compounds from PubChem BioAssay (NCI).

SMILES strings stand for the structures. Several values for one entry are separate records, joined by “and”; a condition that tells them apart may be missing. Equal values may be shown once.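 Method: 48-hour compound exposure of cells in 96-well plates, five concentrations, linear interpolation of endpoints. Abbreviation: GI50, concentration required for 50% inhibition of growth. The concentration for full growth arrest is given as TGI.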 Some results are limits rather than exact numbers.

Some test systems named below: HOP-62 NSCLC; MOLT-4 leukemia; SF-295 CNS; CCRF-CEM leukemia; OVCAR-3 ovarian; RPMI-8226 leukemia; MCF7 breast; OVCAR-5 ovarian; HCC-2998 colon; SR leukemia.
What all share (assay): NCI-60 cell line screen, 48 h

With `CCSCC1CC(O)(c2ccccc2)CC(c2ccc(F)cc2)O1` (configuration not stated), the GI50 was 1.75 µM in the experiment on HOP-62 NSCLC; 1.66 µM in the experiment with MOLT-4 leukemia; 1.9 µM in the experiment with SF-295 CNS; 1.86 µM in the experiment with CCRF-CEM leukemia; 1.83 µM with OVCAR-3 ovarian; 1.95 µM with RPMI-8226 leukemia. For the same compound, the GI50 was 2.79 µM in the experiment with MCF7 breast, 2.17 µM in the experiment on OVCAR-5 ovarian and 2.56 µM in the experiment with HCC-2998 colon. Also, the TGI is 3.29 µM in the experiment on HOP-62 NSCLC; 4.14 µM with MOLT-4 leukemia; 3.92 µM in the experiment with SF-295 CNS; 5.91 µM with CCRF-CEM leukemia; 3.4 µM in the experiment on OVCAR-3 ovarian; 6.46 µM in the experiment with RPMI-8226 leukemia. Also, the figures for the TGI in the experiment with MCF7 breast, in the experiment with OVCAR-5 ovarian and in the experiment on HCC-2998 colon were 8.98 µM, 5.09 µM and 7.11 µM, respectively.
Regarding `CCC(C)[C@H]1O[C@]2(CC[C@@H]1C)C[C@@H]1C[C@@H](C/C=C(\C)[C@@H](OC3C[C@H](OC)C(O[C@H]4C[C@H](OC)[C@@H](O)[C@H](C)O4)[C@H](C)O3)[C@@H](C)/C=C/C=C3\CO[C@@H]4[C@H](O)C(C)=C[C@@H](C(=O)O1)[C@]34O)O2` (some centres not stated), the GI50 with HOP-62 NSCLC was 1.8 µM; in the experiment on MOLT-4 leukemia, 4.77 µM; in the experiment with SF-295 CNS it was 2.54 µM; in the experiment on CCRF-CEM leukemia, 4 µM; in the experiment with OVCAR-3 ovarian it was 3.12 µM; in the experiment with RPMI-8226 leukemia, 2.95 µM. The results for the GI50 with SR leukemia, in the experiment with MCF7 breast and in the experiment on OVCAR-5 ovarian were 5.79 µM, 3.02 µM and 2.05 µM, respectively. In addition, the TGI with HOP-62 NSCLC stood at 4.85 µM; with MOLT-4 leukemia, 20.2 µM; with SF-295 CNS, 10.9 µM; in the experiment with CCRF-CEM leukemia, 21.2 µM; with OVCAR-3 ovarian, 9.3 µM; with RPMI-8226 leukemia it was 14.9 µM. In addition, the TGI with SR leukemia stood at 33.7 µM; in the experiment with MCF7 breast it was 10.8 µM; in the experiment with OVCAR-5 ovarian, 5.67 µM.
With `COC(=O)c1n[nH]c(C)c1N=NN(C)CCC#N`, the TGI came to 37 µM in the experiment with HOP-62 NSCLC; 15.1 µM in the experiment on MOLT-4 leukemia; 73.4 µM with SF-295 CNS; 41.5 µM in the experiment with CCRF-CEM leukemia; 42.2 µM with OVCAR-3 ovarian; 34.9 µM in the experiment with RPMI-8226 leukemia. Also, the TGI amounted to 44.6 µM with SR leukemia, 25.7 µM in the experiment with MCF7 breast and 44.1 µM in the experiment with HCC-2998 colon.
Turning to `CC(C)C1=CC(=O)C(C)(C2C(O)CC3(C)C4CC=C5C(CCC(OC6OC(CO)C(O)C(O)C6OC6OC(C)C(O)C(O)C6O)C5(C)C)C4(C)C(=O)CC23C)O1` (configuration not stated), the TGI with HOP-62 NSCLC, in the experiment with MOLT-4 leukemia, in the experiment on SF-295 CNS, in the experiment on CCRF-CEM leukemia, with OVCAR-3 ovarian and in the experiment on RPMI-8226 leukemia was greater than 100 µM each time. Moreover, the TGI with MCF7 breast, in the experiment on OVCAR-5 ovarian and in the experiment with HCC-2998 colon was greater than 100 µM in each case.
Regarding `CC(C)(C)c1ccc(S(=O)(=O)Oc2ccc3c4c(c(=O)oc3c2)CCCCC4)cc1`, the GI50 was 21.5 µM in the experiment on HOP-62 NSCLC; greater than 100 µM in the experiment with MOLT-4 leukemia; 20.9 µM in the experiment on SF-295 CNS; greater than 100 µM in the experiment with CCRF-CEM leukemia; 18.4 µM in the experiment with OVCAR-3 ovarian; 3.18 µM in the experiment on RPMI-8226 leukemia. The figures for the GI50 in the experiment with MCF7 breast, in the experiment with OVCAR-5 ovarian and in the experiment with HCC-2998 colon were 18.2 µM, 37 µM and greater than 100 µM, respectively. Besides, the TGI was 46.2 µM in the experiment with HOP-62 NSCLC; greater than 100 µM with MOLT-4 leukemia; greater than 100 µM with SF-295 CNS; greater than 100 µM in the experiment on CCRF-CEM leukemia; greater than 100 µM in the experiment on OVCAR-3 ovarian; greater than 100 µM in the experiment on RPMI-8226 leukemia. For the same compound, the TGI in the experiment with MCF7 breast, with OVCAR-5 ovarian and in the experiment with HCC-2998 colon was greater than 100 µM each time.
As for `O=C1CSCc2sccc21`, the TGI with HOP-62 NSCLC, in the experiment on MOLT-4 leukemia, in the experiment on SF-295 CNS, in the experiment with CCRF-CEM leukemia, with OVCAR-3 ovarian and with SR leukemia was greater than 100 µM each time. The TGI in the experiment on MCF7 breast, in the experiment with OVCAR-5 ovarian and with HCC-2998 colon was greater than 100 µM each time.
`COc1cc2c(cc1OC)[C@@H](Nc1ccc(C#N)cc1)C1COC(=O)[C@@H]1C2c1cc(OC)c(O)c(OC)c1` (some centres not stated): the GI50 is 0.0277 µM and 0.0929 µM in the experiment with HOP-62 NSCLC; 0.0111 µM and 0.0152 µM with CCRF-CEM leukemia; 3.26 µM and 5.65 µM in the experiment with OVCAR-3 ovarian; 0.545 µM and 2.05 µM in the experiment on OVCAR-5 ovarian; 0.665 µM and 2.72 µM in the experiment with HCC-2998 colon. For the same compound, the TGI with HOP-62 NSCLC is 0.325 µM and 0.492 µM; with SF-295 CNS, 2 µM and 3.21 µM; with CCRF-CEM leukemia it was 0.0709 µM and 0.451 µM; in the experiment with OVCAR-3 ovarian, 20 µM and 28.4 µM; in the experiment with RPMI-8226 leukemia, 0.225 µM and 0.65 µM; with SR leukemia it was 0.0742 µM. Also, the TGI was greater than 100 µM with MCF7 breast; 95 µM and > 100 µM with OVCAR-5 ovarian.
As for `c1ccc2sc(SCCSc3nc4ccccc4s3)nc2c1`, the TGI with HOP-62 NSCLC, in the experiment on SF-295 CNS, with OVCAR-3 ovarian, in the experiment with RPMI-8226 leukemia, with SR leukemia and in the experiment on MCF7 breast was greater than 100 µM each time. For the same compound, the TGI with OVCAR-5 ovarian and in the experiment on HCC-2998 colon was greater than 100 µM in each case.
With `Cc1nc2ccc(Nc3nc(Cl)nc(N4CCOCC4)n3)cc2n1Cc1ccccc1`, the GI50 with HOP-62 NSCLC was 16.2 µM; in the experiment on SF-295 CNS it was 11.9 µM; in the experiment with CCRF-CEM leukemia it was 2.93 µM; in the experiment on OVCAR-3 ovarian, 4.19 µM; in the experiment with RPMI-8226 leukemia, 97.2 µM; with SR leukemia, 2.83 µM. In addition, the GI50 with MCF7 breast is 18.4 µM; with OVCAR-5 ovarian, greater than 100 µM; in the experiment with HCC-2998 colon, 2.05 µM. Besides, the TGI was greater than 100 µM with HOP-62 NSCLC; 82 µM with SF-295 CNS; greater than 100 µM in the experiment with CCRF-CEM leukemia; 36 µM in the experiment on OVCAR-3 ovarian; greater than 100 µM in the experiment with RPMI-8226 leukemia; greater than 100 µM with SR leukemia. Moreover, the values for the TGI in the experiment on MCF7 breast, in the experiment on OVCAR-5 ovarian and with HCC-2998 colon were greater than 100 µM, greater than 100 µM and 3.85 µM, respectively.
As to `COc1ccc(/C=C(/C#N)C(N)=O)c(OC)c1`, the TGI with HOP-62 NSCLC, in the experiment with MOLT-4 leukemia, in the experiment with SF-295 CNS, in the experiment with CCRF-CEM leukemia, in the experiment on OVCAR-3 ovarian and with RPMI-8226 leukemia was greater than 100 µM throughout. Further, the TGI with SR leukemia, in the experiment with MCF7 breast and in the experiment with OVCAR-5 ovarian was greater than 100 µM in each case.
As to `CC(N)C(Cc1ccc(Cl)cc1)c1ccc(Cl)cc1` (configuration not stated), the GI50 in the experiment on HOP-62 NSCLC is 13.1 µM; in the experiment on MOLT-4 leukemia it was 13.6 µM; in the experiment with SF-295 CNS, 10.4 µM; with CCRF-CEM leukemia, 20.3 µM; in the experiment on OVCAR-3 ovarian it was 13.8 µM; in the experiment with RPMI-8226 leukemia, 6.48 µM. Moreover, the GI50 was 2.99 µM in the experiment with MCF7 breast, 12.4 µM with OVCAR-5 ovarian and 1.96 µM with HCC-2998 colon. Moreover, the TGI is 28.4 µM with HOP-62 NSCLC; 31.4 µM in the experiment on MOLT-4 leukemia; 23.6 µM in the experiment on SF-295 CNS; 39 µM in the experiment with CCRF-CEM leukemia; 27.5 µM with OVCAR-3 ovarian; 22.2 µM in the experiment with RPMI-8226 leukemia. Besides, the TGI came to 12.5 µM with MCF7 breast, 27.3 µM with OVCAR-5 ovarian and 4.11 µM in the experiment with HCC-2998 colon.
